In patent publication US10294202B2, “Pyrrolidinones as herbicides” (FMC Corporation, priority 2013, dated 2019):

Assays:
[1] = tested on: cocklebur; experiment: Test C pre-/postemergence herbicide test; type: in vivo, Xanthium strumarium
Description: Seeds of plant species selected from blackgrass (Alopecurus myosuroides), ryegrass, Italian (Italian ryegrass, Lolium multiflorum), wheat (winter wheat, Triticum aestivum), galium (catchweed bedstraw, Galium aparine), corn (Zea mays), crabgrass, large (large crabgrass, Digitaria sanguinalis), foxtail, giant (giant foxtail, Setaria faberii), johnsongrass (Sorghum halepense), lambsquarters (Chenopodium album), morningglory (Ipomoea coccinea), nutsedge, yellow (yellow nutsedge, Cyperus esculentus), pigweed (Amaranthus retroflexus), ragweed (common ragweed, Ambrosia elatior), soybean (Glycine max), barnyardgrass (Echinochloa crus-galli), oilseed rape (Brassica napus), waterhemp (common waterhemp, Amaranthus rudis), kochia (Kochia scoparia), oat, wild (wild oat, Avena fatua), surinam grass (Brachiaria decumbens), foxtail, green (green foxtail, Setaria viridis), goosegrass (Eleusine indica), bromegrass, downy (downy bromegrass, Bromus tectorum), nightshade (eastern black nightshade, Solanum ptycanthum), cocklebur (common cocklebur, Xanthium strumarium), cupgrass, woolly (woolly cupgrass, Eriochloa villosa), bermudagrass (Cynodon dactylon), sunflower, (common oilseed sunflower, Helianthus annuus), Russian thistle (Salsola kali) and velvetleaf (Abutilon theophrasti) were planted into a blend of loam soil and sand and treated preemergence with test chemicals formulated in a non-phytotoxic solvent mixture which included a surfactant. At the same time, plants selected from these crop and weed species and also barley (winter barley, Hordeum vulgare), […]), chickweed (common chickweed, Stellaria media), deadnettle (henbit deadnettle, Lamium amplexicaule), and canarygrass (littleseed canarygrass, Phalaris minor) were planted in pots containing Redi-Earth® planting medium (Scotts Company, 14111 Scottslawn Road, Marysville, Ohio 43041) comprising spaghnum peat moss, vermiculite, wetting agent and starter nutrients and treated with postemergence applications of test chemicals formulated in the same manner. Plants ranged in height from 2 to 18 cm (1- to 4-leaf stage) for postemergence treatments. Treated plants and controls were maintained in a greenhouse for 13 to 15 days, after which time all species were compared to controls and visually evaluated. Plant response ratings, summarized in Table C, are based on a scale of 0 to 100 where 0 is no effect and 100 is complete control. A dash (-) response means no test result.

[2] = tested on: canarygrass; experiment: Test D pre-/postemergence herbicide test; type: in vivo, Phalaris minor; conditions: for Plant response rating, Canarygrass: scale 0 to 100 (0 no effect, 100 complete control); for Plant response rating: Canarygrass, scale 0 to 100
Description: (§1) Seeds of plant species selected from bluegrass (annual bluegrass, Poa annua), blackgrass (Alopecurus myosuroides), canarygrass (littleseed canarygrass, Phalaris minor), chickweed (common chickweed, Stellaria media), galium (catchweed bedstraw, Galium aparine), bromegrass, downy (downy bromegrass, Bromus tectorum), field poppy (Papaver rhoeas), field violet (Viola arvensis), foxtail, green (green foxtail, Setaria viridis), deadnettle (henbit deadnettle, Lamium amplexicaule), ryegrass, Italian (Italian ryegrass, Lolium multiflorum), kochia (Kochia scoparia), lambsquarters (Chenopodium album), oilseed rape (Brassica napus), pigweed (Amaranthus retroflexus), chamomile (scentless chamomile, Matricaria inodora), Russian thistle (Salsola kali), speedwell (bird's-eye speedwell, Veronica persica), barley, spring (spring barley, Hordeum vulgare), wheat, spring (spring wheat, Triticum aestivum), buckwheat, wild (wild buckwheat, Polygonum convolvulus), mustard, wild (wild mustard, Sinapis arvensis), oat, wild (wild oat, Avena fatua), radish, wild (wild radish, Raphanus raphanistrum), […]), barley, winter (winter barley, Hordeum vulgare), and wheat, winter (winter wheat, Triticum aestivum) were planted into a silt loam soil and treated preemergence with test chemicals formulated in a non-phytotoxic solvent mixture which included a surfactant. At the same time, these species were planted in pots containing Redi-Earth® planting medium (Scotts Company, 14111 Scottslawn Road, Marysville, Ohio 43041) comprising spaghnum peat moss, vermiculite, wetting agent and starter nutrients and treated with postemergence applications of the test chemicals formulated in the same manner. Plants ranged in height from 2 to 18 cm (1- to 4-leaf stage). Treated plants and controls were maintained in a controlled growth environment for 7 to 21 days after which time all species were compared to controls and visually evaluated. Plant response ratings, summarized in Table D, are based on a scale of 0 to 100 where 0 is no effect and 100 is complete control. A dash (-) response means no test result.

[3] = tested on: chickweed; experiment: Test D pre-/postemergence herbicide test; type: in vivo, Stellaria media; conditions: for Plant response rating, Chickweed: scale 0 to 100 (0 no effect, 100 complete control); for Plant response rating: Chickweed, scale 0 to 100
Description: as §1

[4] = tested on: speedwell; experiment: Test D pre-/postemergence herbicide test; type: in vivo, Veronica persica; conditions: for Plant response rating, Speedwell: Preemergence, scale 0 to 100 (0 no effect, 100 complete control); for Plant response rating: Postemergence, Speedwell, scale 0 to 100
Description: as §1

[5] = Postemergence, 31 g ai/ha, scale 0 (no effect) to 100 (complete control)
[6] = Postemergence, 62 g ai/ha, scale 0 to 100 (0 no effect, 100 complete control)
[7] = Postemergence, 125 g ai/ha, scale 0 to 100 (0 no effect, 100 complete control)
[8] = Preemergence, 62 g ai/ha, scale 0 to 100
[9] = Preemergence, 125 g ai/ha, scale 0 to 100 (0 no effect, 100 complete control)
[10] = Preemergence, 31 g ai/ha, scale 0 to 100 (0 no effect, 100 complete control)

| SMILES | Plant response rating, Cocklebur [1, 5] | Plant response rating, Cocklebur [1, 6] | Plant response rating, Cocklebur [1, 7] | Plant response rating, Cocklebur [1, 8] | Plant response rating, Cocklebur [1, 9] | Plant response rating, Canarygrass ([2]; Preemergence, 62 g ai/ha) | Plant response rating, Canarygrass ([2]; Preemergence, 31 g ai/ha) | Plant response rating ([2]; Preemergence, 125 g ai/ha) | Plant response rating ([2]; Preemergence, 250 g ai/ha) | Plant response rating, Speedwell ([4]; 62 g ai/ha) | Plant response rating, Speedwell ([4]; 125 g ai/ha) | Plant response rating, Speedwell ([4]; 31 g ai/ha) | Plant response rating, Speedwell ([4]; 250 g ai/ha) | Plant response rating ([2]; Postemergence, 31 g ai/ha) | Plant response rating ([2]; Postemergence, 62 g ai/ha) | Plant response rating ([2]; Postemergence, 125 g ai/ha) | Plant response rating ([2]; Postemergence, 250 g ai/ha) | Plant response rating ([3]; Postemergence, 31 g ai/ha) | Plant response rating ([3]; Postemergence, 62 g ai/ha) | Plant response rating ([3]; Postemergence, 125 g ai/ha) | other results |
| --- | --- | --- | --- | --- | --- | --- | --- | --- | --- | --- | --- | --- | --- | --- | --- | --- | --- | --- | --- | --- | --- |
| O=C1NCC(c2ccc(F)c(Cl)c2)C1C(=O)Nc1ccccc1F (stereo not shown) [Compound 60] | 0 | 0 | 0 | 0 | 0 | – | – | – | – | – | – | – | – | – | – | – | – | – | – | – | – |
| O=C1NCC(c2ccc(F)c(C(F)(F)F)c2)C1C(=O)Nc1cccc(F)c1F (racemic) [Compound 77] | – | – | – | – | – | 45 | 25 | 65 | 85 | 25 | 35 | 20 | 100 | – | – | – | – | – | – | – | Plant response rating, Chickweed ([3]; Preemergence, 62 g ai/ha): 90; Plant response rating, Chickweed ([3]; Preemergence, 31 g ai/ha): 75; Plant response rating ([3]; Preemergence, 125 g ai/ha): 100; Plant response rating ([3]; Preemergence, 250 g ai/ha): 100 |
| O=C1NCC(c2ccc(C(F)(F)F)cc2)C1C(=O)Nc1ccccc1F (stereo not shown) [Compound 231] | – | – | – | – | – | 15 | 0 | – | 35 | 80 | 100 | 75 | 100 | 0 | 0 | 0 | 0 | 25 | 80 | 80 | Plant response rating, Canarygrass ([2]; Preemergence, 125 g ai/ha): 20; Plant response rating ([3]; Postemergence, 250 g ai/ha): 80; Plant response rating, Chickweed ([3]; Preemergence, 62 g ai/ha): 85; Plant response rating, Chickweed ([3]; Preemergence, 125 g ai/ha): 95; Plant response rating, Chickweed ([3]; Preemergence, 31 g ai/ha): 75; Plant response rating ([3]; Preemergence, 250 g ai/ha): 90; Plant response rating ([4]; 31 g ai/ha): 60; Plant response rating ([4]; 62 g ai/ha): 70; Plant response rating ([4]; 125 g ai/ha): 75; Plant response rating ([4]; 250 g ai/ha): 75 |
| O=C1NCC(c2cc(F)c(F)c(F)c2)C1C(=O)Nc1cccc(F)c1F (stereo not shown) [Compound 48] | 5 | 10 | 10 | 0 | 5 | – | – | – | – | – | – | – | – | – | – | – | – | – | – | – | Plant response rating, Cocklebur ([1]; Postemergence, 16 g ai/ha, scale 0 to 100 (0 no effect, 100 complete control)): 0; Plant response rating, Cocklebur ([1]; Preemergence, 16 g ai/ha, scale 0 to 100): 0; Cocklebur plant response rating [1, 10]: 0 |
| O=C1NCCC1C(=O)N(c1ccc(F)c(F)c1)c1ccccc1F (stereo not shown) [Compound 5, N-(3,4-difluorophenyl)-N-(2-fluorophenyl)-2-oxo-3-pyrrolidinecarboxamide] | – | – | – | 0 | 0 | – | – | – | – | – | – | – | – | – | – | – | – | – | – | – | Cocklebur plant response rating [1, 10]: 0; Plant response rating, Cocklebur ([1]; Preemergence, 250 g ai/ha, scale 0 to 100 (0 no effect, 100 complete control)): 0 |
| O=C1NCC(c2ccc(Cl)c(F)c2)C1C(=O)Nc1cccc(F)c1F (stereo not shown) [Compound 52] | 5 | 5 | 5 | 0 | 0 | 0 | 0 | 0 | 0 | 90 | 100 | 90 | 100 | 0 | 0 | 0 | 0 | 0 | 10 | 15 | Plant response rating, Cocklebur ([1]; Postemergence, 250 g ai/ha, scale 0 to 100 (0 no effect, 100 complete control)): 5; Cocklebur plant response rating [1, 10]: 0; Plant response rating ([2]; Postemergence, 16 g ai/ha): 0; Plant response rating, Canarygrass ([2]; Preemergence, 16 g ai/ha): 0; Plant response rating ([3]; Postemergence, 16 g ai/ha): 0; Plant response rating ([3]; Postemergence, 250 g ai/ha): 25; Plant response rating ([4]; 16 g ai/ha): 20; Plant response rating ([4]; 31 g ai/ha): 20; Plant response rating ([4]; 62 g ai/ha): 25; Plant response rating ([4]; 125 g ai/ha): 40; Plant response rating ([4]; 250 g ai/ha): 70; Plant response rating, Speedwell ([4]; 16 g ai/ha): 0 |
| O=C1NCC(c2ccc(F)c(F)c2)C1C(=O)Nc1ccccc1C(F)(F)F (racemic) [Compound 6] | – | – | – | – | – | 10 | 0 | 20 | 20 | 10 | 30 | 10 | 50 | 0 | 0 | 0 | 0 | 0 | 0 | 10 | Plant response rating ([2]; Postemergence, 16 g ai/ha): 0; Plant response rating, Canarygrass ([2]; Preemergence, 16 g ai/ha): 0; Plant response rating ([3]; Postemergence, 16 g ai/ha): 0; Plant response rating ([3]; Postemergence, 250 g ai/ha): 30; Plant response rating ([4]; 16 g ai/ha): 0; Plant response rating ([4]; 31 g ai/ha): 0; Plant response rating ([4]; 62 g ai/ha): 0; Plant response rating ([4]; 125 g ai/ha): 0; Plant response rating ([4]; 250 g ai/ha): 15; Plant response rating, Speedwell ([4]; 16 g ai/ha): 0 |
| O=C1NCC(c2cccc(OC(F)(F)F)c2)C1C(=O)Nc1ccccc1F (stereo not shown) [Compound 69] | – | – | – | – | – | – | – | – | – | – | – | – | – | – | – | – | – | – | – | – | Cocklebur plant response rating ([1]; Preemergence, 31 g ai/ha, scale 0 to 100, 0 is no effect and 100 is complete control): 0; Plant response rating (scale of 0 to 100), Cocklebur ([1]; Preemergence, 250 g ai/ha): 0 |
